From patent publication US20050101595A1, “N-containing cycloalkyl-substituted amino-thiazole derivatives and pharmaceutical compositions for inhibiting cell proliferation and methods for their use” (PFIZER INC., priority 2003, published 2005) come the findings set out here.

One experiment has as its system HCT-116 cell line. The experiment in a line: Inhibition of cell growth, tetrazolium salt (MTT) assay. Conditions: HCT116 cells; compound at 250 nM; 0.25 µM. Format: cell-based. How it is done:
Inhibition of Cell Growth: Assessment of Cytotoxicity:
Inhibition of cell growth was measured using the tetrazolium salt assay, which is based on the ability of viable cells to reduce 3-(4,5-dimethylthiazol-2-yl)-2,5-[2H]-diphenyltetrazolium bromide (MTT) to formazan (Mossman, Journal of Immunological Methods, vol. 65 (1983), pp. 55-58). The water-insoluble purple formazan product was then detected spectrophotometrically. The HCT-116 cell line was used as a representative cancer cell line and grown in 96-well plates. Cells were plated in McCoy's 5A Medium at a volume of 135 μl/well. Plates were incubated for four hours before addition of inhibitor compounds. Different concentrations of inhibitor compounds were added in 0.5% (v/v) dimethylsulfoxide (15 μLuwell), and cells were incubated at 37° C. (5% CO2) for three to five days. At the end of the incubation, MTT was added to a final concentration of 0.2 mg/mL, and cells were incubated for 4 hours more at 37° C. After centrifugation of the plates and removal of medium, the absorbance of the formazan (solubilized in dimethylsulfoxide) was measured at 540 nm. […] All results were compared to control cells treated only with 0.5% (v/v) dimethylsulfoxide.
Turning to `Nc1nc(NC2CCN(S(=O)(=O)CCNCc3cccnc3)CC2)sc1C(=O)c1c(F)cccc1F` [Example S56], the “% Inhibition HCT116 @ 250 nM” value came out at 73%.
In the case of `Nc1nc(NC2CCN(S(=O)(=O)CCNCc3cccnc3)CC2)sc1C(=O)c1c(F)cccc1F` [Example S84], the “% Inhibition HCT116 @ 250 nM” value is 12%.

The experiment is the same for the next values; noted with them: Homo sapiens, HCT-116, HCT116 cells; compound at 250 nM; read-out: % Inhibition HCT116 @ 250 nM.
For `Nc1nc(NC2CCN(S(=O)(=O)CCN3CCCC(O)C3)CC2)sc1C(=O)c1c(F)cccc1F` (stereo not shown) [Example S39], the inhibition at 0.25 µM was found to be 14%.
On the same count and under the same terms, for `CN(CCS(=O)(=O)N1CCC(Nc2nc(N)c(C(=O)c3c(F)cccc3F)s2)CC1)CC1OCCO1` [Example S41] the value was 18%; for `COC[C@@H]1CCCN1CCS(=O)(=O)N1CCC(Nc2nc(N)c(C(=O)c3c(F)cccc3F)s2)CC1` [Example S42], 12%.
The same measure, in the same setting: for `CCN(CC)CCN(CC)CCS(=O)(=O)N1CCC(Nc2nc(N)c(C(=O)c3c(F)cccc3F)s2)CC1` [Example S43] the value was 13%; for `CC(C)N(CCS(=O)(=O)N1CCC(Nc2nc(N)c(C(=O)c3c(F)cccc3F)s2)CC1)Cc1ccccc1` [Example S44], 55%.
Same read-out and setting: the result for `CCN(CCS(=O)(=O)N1CCC(Nc2nc(N)c(C(=O)c3c(F)cccc3F)s2)CC1)Cc1ccncc1` [Example S45] reads 13%; that for `COCCN(CCOC)CCS(=O)(=O)N1CCC(Nc2nc(N)c(C(=O)c3c(F)cccc3F)s2)CC1` [Example S46], 58%; that for `C=CC(O)CN(CCC)CCS(=O)(=O)N1CCC(Nc2nc(N)c(C(=O)c3c(F)cccc3F)s2)CC1` (stereo not shown) [Example S47], 8%.
`NC(=O)C1CCN(CCS(=O)(=O)N2CCC(Nc3nc(N)c(C(=O)c4c(F)cccc4F)s3)CC2)CC1` [Example S48]: the inhibition at 0.25 µM is 17%.
As to `COC(=O)CN(C)CCS(=O)(=O)N1CCC(Nc2nc(N)c(C(=O)c3c(F)cccc3F)s2)CC1` [Example S49], the inhibition at 0.25 µM was 33%.
Same read-out and setting: the result for `CN(CCc1ccncc1)CCS(=O)(=O)N1CCC(Nc2nc(N)c(C(=O)c3c(F)cccc3F)s2)CC1` [Example S50] reads 17%; that for `C=C(C)CN(C)CCS(=O)(=O)N1CCC(Nc2nc(N)c(C(=O)c3c(F)cccc3F)s2)CC1` [Example S51], 83%.
Same read-out and setting: the result for `CC(=O)N1CCN(CCS(=O)(=O)N2CCC(Nc3nc(N)c(C(=O)c4c(F)cccc4F)s3)CC2)CC1` [Example S52] reads 18%; that for `CN(CC#N)CCS(=O)(=O)N1CCC(Nc2nc(N)c(C(=O)c3c(F)cccc3F)s2)CC1` [Example S53], 17%.
Still for that read-out and setting: the result for `Nc1nc(NC2CCN(S(=O)(=O)CCN3CCC[C@@H]3CO)CC2)sc1C(=O)c1c(F)cccc1F` [Example S54] reads 16%; that for `CN(CCS(=O)(=O)N1CCC(Nc2nc(N)c(C(=O)c3c(F)cccc3F)s2)CC1)CC(=O)N(C)C` [Example S55], 7%; that for `Nc1nc(NC2CCN(S(=O)(=O)CCNC3CCCCC3)CC2)sc1C(=O)c1c(F)cccc1F` [Example S58], 50%.
As for `Nc1nc(NC2CCN(S(=O)(=O)CCNC3CCC3)CC2)sc1C(=O)c1c(F)cccc1F` [Example S59], the inhibition at 0.25 µM amounted to 40%.
Same read-out and setting: for `Nc1nc(NC2CCN(S(=O)(=O)CCNC3CC3)CC2)sc1C(=O)c1c(F)cccc1F` [Example S60] the value was 72%; for `CN(C)[C@H]1CCN(CCS(=O)(=O)N2CCC(Nc3nc(N)c(C(=O)c4c(F)cccc4F)s3)CC2)C1` [Example S61], 8%.
Regarding `CN(C)[C@@H]1CCN(CCS(=O)(=O)N2CCC(Nc3nc(N)c(C(=O)c4c(F)cccc4F)s3)CC2)C1` [Example S62], the inhibition at 0.25 µM is 6%.
On the same count and under the same terms, for `Nc1nc(NC2CCN(S(=O)(=O)CCN3CCC(CO)CC3)CC2)sc1C(=O)c1c(F)cccc1F` [Example S63] the value was 4%; for `NC(=O)[C@H]1CCCN1CCS(=O)(=O)N1CCC(Nc2nc(N)c(C(=O)c3c(F)cccc3F)s2)CC1` [Example S64], 12%.
The same measure, in the same setting: for `COCCN(C)CCS(=O)(=O)N1CCC(Nc2nc(N)c(C(=O)c3c(F)cccc3F)s2)CC1` [Example S65] the value was 8%; for `CN(C)C(=O)[C@H]1CCCN1CCS(=O)(=O)N1CCC(Nc2nc(N)c(C(=O)c3c(F)cccc3F)s2)CC1` [Example S66], 14%.
The same measure, in the same setting: for `Nc1nc(NC2CCN(S(=O)(=O)CCNCC3CCCCC3)CC2)sc1C(=O)c1c(F)cccc1F` [Example S67] the value was 40%.
For the molecule `Nc1nc(NC2CCN(S(=O)(=O)CCNC3CCCc4ccccc43)CC2)sc1C(=O)c1c(F)cccc1F` (stereo not shown) [Example S68], the inhibition at 0.25 µM amounted to 21%.
`CN1CCCC1CCNCCS(=O)(=O)N1CCC(Nc2nc(N)c(C(=O)c3c(F)cccc3F)s2)CC1` (stereo not shown) [Example S69]: the inhibition at 0.25 µM is 31%.
`CCN1CCCC1CNCCS(=O)(=O)N1CCC(Nc2nc(N)c(C(=O)c3c(F)cccc3F)s2)CC1` (stereo not shown) [Example S70]: the inhibition at 0.25 µM is 23%.
In the case of `Nc1nc(NC2CCN(S(=O)(=O)CCNCCCN3CCCC3=O)CC2)sc1C(=O)c1c(F)cccc1F` [Example S71], the inhibition at 0.25 µM worked out at 23%.
For the molecule `Nc1nc(NC2CCN(S(=O)(=O)CCNCc3ccco3)CC2)sc1C(=O)c1c(F)cccc1F` [Example S72], the inhibition at 0.25 µM stood at 19%.
Take `Nc1nc(NC2CCN(S(=O)(=O)CCNC3CCc4ccccc43)CC2)sc1C(=O)c1c(F)cccc1F` (stereo not shown) [Example S73]: the inhibition at 0.25 µM is 16%.
For the molecule `CC(C)C(CO)NCCS(=O)(=O)N1CCC(Nc2nc(N)c(C(=O)c3c(F)cccc3F)s2)CC1` (stereo not shown) [Example S74], the inhibition at 0.25 µM was 9%.
For the molecule `Nc1nc(NC2CCN(S(=O)(=O)CCNCCc3cnc[nH]3)CC2)sc1C(=O)c1c(F)cccc1F` [Example S75], the inhibition at 0.25 µM was determined as 12%.
Regarding `Nc1nc(NC2CCN(S(=O)(=O)CCN[C@@H]3CONC3=O)CC2)sc1C(=O)c1c(F)cccc1F` [Example S76], the inhibition at 0.25 µM turned out to be 11%.
Take `Nc1nc(NC2CCN(S(=O)(=O)CCNCC3CCCO3)CC2)sc1C(=O)c1c(F)cccc1F` (stereo not shown) [Example S77]: the inhibition at 0.25 µM amounted to 9%.
Turning to `CC(NCCS(=O)(=O)N1CCC(Nc2nc(N)c(C(=O)c3c(F)cccc3F)s2)CC1)c1ccccc1` (stereo not shown) [Example S78], the inhibition at 0.25 µM came out at 49%.
Still for that read-out and setting: the result for `Nc1nc(NC2CCN(S(=O)(=O)CCN[C@@H](CO)c3ccccc3)CC2)sc1C(=O)c1c(F)cccc1F` [Example S79] reads 14%.
Still for that read-out and setting: for `CC(C)(CO)NCCS(=O)(=O)N1CCC(Nc2nc(N)c(C(=O)c3c(F)cccc3F)s2)CC1` [Example S80] the value was 13%; for `CC(C)(C)NCCS(=O)(=O)N1CCC(Nc2nc(N)c(C(=O)c3c(F)cccc3F)s2)CC1` [Example S81], 82%.
On the same count and under the same terms, the result for `Nc1nc(NC2CCN(S(=O)(=O)CCNCCN3CCCCC3)CC2)sc1C(=O)c1c(F)cccc1F` [Example S82] reads 15%; that for `Nc1nc(NC2CCN(S(=O)(=O)CCNCc3ccncc3)CC2)sc1C(=O)c1c(F)cccc1F` [Example S83], 6%.
As to `Nc1nc(NC2CCN(S(=O)(=O)CCNCCc3ccccn3)CC2)sc1C(=O)c1c(F)cccc1F` [Example S85], the inhibition at 0.25 µM was 19%.
The same measure, in the same setting: the result for `Nc1nc(NC2CCN(S(=O)(=O)CCNCc3ccccn3)CC2)sc1C(=O)c1c(F)cccc1F` [Example S86] reads 11%; that for `Nc1nc(NC2CCN(S(=O)(=O)CCNCCN3CCOCC3)CC2)sc1C(=O)c1c(F)cccc1F` [Example S87], 13%.
Consider `Nc1nc(NC2CCN(S(=O)(=O)CCNCc3cccs3)CC2)sc1C(=O)c1c(F)cccc1F` [Example S88], for which the inhibition at 0.25 µM turned out to be 28%.
Still for that read-out and setting: the result for `COCC(C)NCCS(=O)(=O)N1CCC(Nc2nc(N)c(C(=O)c3c(F)cccc3F)s2)CC1` (stereo not shown) [Example S89] reads 17%; that for `CC(CO)NCCS(=O)(=O)N1CCC(Nc2nc(N)c(C(=O)c3c(F)cccc3F)s2)CC1` (stereo not shown) [Example S90], 7%.
The same measure, in the same setting: for `CCOC(=O)CC(C)NCCS(=O)(=O)N1CCC(Nc2nc(N)c(C(=O)c3c(F)cccc3F)s2)CC1` (stereo not shown) [Example S91] the value was 10%; for `CCC(CO)NCCS(=O)(=O)N1CCC(Nc2nc(N)c(C(=O)c3c(F)cccc3F)s2)CC1` (stereo not shown) [Example S92], 8%; for `CCCC(C)NCCS(=O)(=O)N1CCC(Nc2nc(N)c(C(=O)c3c(F)cccc3F)s2)CC1` (stereo not shown) [Example S93], 33%.
For the molecule `Nc1nc(NC2CCN(S(=O)(=O)CCNCc3ccccc3)CC2)sc1C(=O)c1c(F)cccc1F` [Example S94], the inhibition at 0.25 µM came out at 64%.
Turning to `Nc1nc(NC2CCN(S(=O)(=O)CCNCc3ccccc3F)CC2)sc1C(=O)c1c(F)cccc1F` [Example S95], the inhibition at 0.25 µM turned out to be 51%.
The same measure, in the same setting: for `Nc1nc(NC2CCN(S(=O)(=O)CCNCc3ccccc3Cl)CC2)sc1C(=O)c1c(F)cccc1F` [Example S96] the value was 48%; for `COc1ccccc1CNCCS(=O)(=O)N1CCC(Nc2nc(N)c(C(=O)c3c(F)cccc3F)s2)CC1` [Example S97], 25%; for `Cc1ccccc1CNCCS(=O)(=O)N1CCC(Nc2nc(N)c(C(=O)c3c(F)cccc3F)s2)CC1` [Example S98], 49%.
